Measurements as given in article PMC7070036, “An amber obligate active site-directed ligand evolution technique for phage display” (Nature Communications, 2020).
“And” between values parts separate entries of the source, which are not always exact repeats. Identical values can stand only once. Starred links: 1 amine or outer side, 2 acyl side, 3 side chain; linkers in the order of their positions; H or OH if unused. Non-standard residues stand in square brackets, D forms with d. Residues, ends and D or L forms follow the SMILES beside them. Lys(thiomyristoyl) = CCCCCCCCCCCCCC(=S)NCCCC[C@H](N)C(=O)O; X1 = CCCC(=S)NCCCC[C@H](N[*:1])C(=O)[*:2]; Abu = CC[C@H](N)C(=O)O

What was measured:
SIRT2 [1] = biological target: T1, SIRT2 (Homo sapiens, UniProt Q8IXJ6); experiment: SIRT2 inhibition assay for thiomyristoyl peptides; type: biochemical; details: for IC50: 10 nM SIRT2, 15 min preincubation, 5 µM substrate, n = 2
T1 sequence (Q8IXJ6 1-389): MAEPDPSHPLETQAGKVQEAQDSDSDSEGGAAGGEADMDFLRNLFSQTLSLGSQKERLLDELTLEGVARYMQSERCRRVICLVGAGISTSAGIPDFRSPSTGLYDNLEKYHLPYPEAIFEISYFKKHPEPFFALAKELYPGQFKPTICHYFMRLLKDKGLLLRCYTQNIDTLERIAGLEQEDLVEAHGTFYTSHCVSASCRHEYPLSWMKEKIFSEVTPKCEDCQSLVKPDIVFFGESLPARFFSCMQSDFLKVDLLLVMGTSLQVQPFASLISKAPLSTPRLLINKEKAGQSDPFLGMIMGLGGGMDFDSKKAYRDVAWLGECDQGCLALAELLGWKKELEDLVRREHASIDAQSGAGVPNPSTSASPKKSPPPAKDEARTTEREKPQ
Protocol: Assays were performed in 40-µL volumes at 37 °C in black, 384-well plates. […] Following incubation, the reaction started with the addition of the fluorogenic substrate (5 µM), and product formation was monitored by measuring the fluorescence intensity every 20 s for 5 min (SIRT2) in a BioTek Synergy H1 microplate reader at λex = 320 nm and λem = 408 nm (gain = 130 and read height = 7 mm). Initial rates were determined using the plot of fluorescence vs. time for linear portions of each curve. IC50 values were then determined using GraphPad Prism to fit a nonlinear regression to the normalized rates vs. inhibitor concentration.

SIRT2 [2] = biological target: T1, SIRT2; experiment: Continuous fluorogenic sirtuin inhibition assay, SIRT2 (tBuK peptides, TB); type: biochemical; details: for IC50: 0.25 µM SIRT2, 1 mM NAD+, 5 µM fluorogenic substrate, 15 min preincubation, n = 2, read-out: IC50
Protocol: The continuous assay for comparing isoform specificity of S2P04 was performed using the universal fluorogenic sirtuin substrate described by Schuster et al.[41]. Briefly, the inhibition reactions were performed in 50-µL volumes at 37 °C in black, half-area, 96-well plates. The sirtuin enzyme (0.25 µM) was preincubated with different concentrations of the peptide S2P04 (0.0064–50 µM for SIRT1 and SIRT2, 0.5–100 µM for SIRT3) or TB (0.16–150 µM for SIRT1–SIRT3), and 1 mM NAD^+ in assay buffer (20 mM Tris, pH 7.8, 150 mM NaCl, 5 mM MgCl2, and 1 mM DTT) for 15 min. Following incubation, the reaction started with the addition of the fluorogenic substrate (5 µM), and product formation was monitored by measuring the fluorescence intensity every 20 s for 5 min (SIRT2) or 30 min (SIRT1 and SIRT3) in a BioTek Synergy H1 microplate reader at λex = 320 nm and λem = 408 nm (gain = 130 and read height = 7 mm). Initial rates of product formation were determined by a linear regression of the plot of fluorescence intensity vs. time and normalized relative to 0% (max inhibitor) and 100% (no inhibitor) controls. The assay was repeated to determine the IC50 values of all BuK peptides for SIRT2. IC50 values were determined by nonlinear regression of the plot of the normalized initial rate vs. inhibitor concentration using GraphPad Prism. The determined IC50 values are provided in Supplementary Table 2, and inhibition curves can be seen in Supplementary Fig. 20.

[3] = inhibitor 0.0064 µM, single trials, 0.0064 µM
[4] = inhibitor 0.032 µM, single trials
[5] = inhibitor 0.032 µM, single trials, 0.032 µM
[6] = inhibitor 0.5 µM, single trials
[7] = inhibitor 0.5 µM, single trials, 0.5 µM
[8] = inhibitor 1 µM, single trials, 1 µM
[9] = inhibitor 2 µM, single trials, 2 µM
[10] = inhibitor 4 µM, single trials, 4 µM
[11] = inhibitor 50 µM, single trials, 50 µM

## CCCCCCCCCCCCCC(=S)NCCCC[C@H](NC(=O)[C@@H](NC(=O)[C@@H](NC(=O)[C@@H](N)CC)[C@@H](C)O)C(C)C)C(=O)N[C@H](C(N)=O)[C@@H](C)CC [S2P04(Abu)-5-tMyK] (H-[Abu]TV[Lys(thiomyristoyl)]I-NH2)
SIRT2 [1]
  IC50: 18 ± 6 nM
SIRT2 [1]; inhibitor 0.460773 nM
  activity at 0.000460773 µM: 83.3%
SIRT2 [1]; inhibitor 0.460773 nM, listed as S2P04 (Abu)-tMyK, 0.000460773 µM
  %Activity, SIRT2: 75.1766%
SIRT2 [1]; inhibitor 0.921546 nM
  activity at 0.000921546 µM: 84.4%
SIRT2 [1]; inhibitor 0.921546 nM, listed as S2P04 (Abu)-tMyK, 0.000921546 µM
  %Activity, SIRT2: 83.3137%
SIRT2 [1]; inhibitor 1.84309 nM
  activity at 0.00184309 µM: 92.7%
SIRT2 [1]; inhibitor 1.84309 nM, listed as S2P04 (Abu)-tMyK, 0.00184309 µM
  %Activity, SIRT2: 107.334%
SIRT2 [1]; inhibitor 3.68618 nM
  activity at 0.00368618 µM: 92.3%
SIRT2 [1]; inhibitor 3.68618 nM, listed as S2P04 (Abu)-tMyK, 0.00368618 µM
  %Activity, SIRT2: 86.7202%
SIRT2 [1]; inhibitor 7.37237 nM, listed as S2P04 (Abu)-tMyK, 0.00737237 µM
  %Activity, SIRT2: 106.229% and 65.8212%
SIRT2 [1]; inhibitor 14.7447 nM
  activity at 0.0147447 µM: 70.6%
SIRT2 [1]; inhibitor 14.7447 nM, listed as S2P04 (Abu)-tMyK, 0.0147447 µM
  %Activity, SIRT2: 50.6621%
SIRT2 [1]; inhibitor 58.979 nM
  activity at 0.058979 µM: 27.7%
SIRT2 [1]; inhibitor 58.979 nM, listed as S2P04 (Abu)-tMyK, 0.058979 µM
  %Activity, SIRT2: 13.9723%
SIRT2 [1]; inhibitor 117.958 nM
  activity at 0.117958 µM: 20.7%
SIRT2 [1]; inhibitor 117.958 nM, listed as S2P04 (Abu)-tMyK, 0.117958 µM
  %Activity, SIRT2: 15.5064%
SIRT2 [1]; inhibitor 235.916 nM, listed as S2P04 (Abu)-tMyK, 0.235916 µM
  %Activity, SIRT2: 2.564% and 11.5055%
SIRT2 [1]; inhibitor 471.832 nM, listed as S2P04 (Abu)-tMyK, 0.471832 µM
  %Activity, SIRT2: 2.292% and -2.292%
SIRT2 [1]; inhibitor 943.663 nM, listed as S2P04 (Abu)-tMyK, 0.943663 µM
  %Activity, SIRT2: 6.074% and 14.5226%

## CCCC(=S)NCCCC[C@H](NC(=O)[C@@H](NC(=O)[C@@H](NC(=O)[C@@H](N)CS)[C@@H](C)O)C(C)C)C(=O)N[C@H](C(N)=O)[C@@H](C)CC [S2P04-5-tBuK] (H-CTV[X1]I-NH2)
SIRT2 [2]
  IC50: 136 ± 29 nM
SIRT2 [2]; inhibitor 0.0064 µM, single trials
  activity at 0.0064 µM: 101%
SIRT2 [2]; [3]
  %Activity, SIRT2: 119.97%
SIRT2 [2]; [4]
  activity at 0.032 µM: 87.2%
SIRT2 [2]; [5]
  %Activity, SIRT2: 96.038%
SIRT2 [2]; [6]
  activity at 0.5 µM: 8.86%
SIRT2 [2]; [7]
  %Activity, SIRT2: 9.5933%
SIRT2 [2]; inhibitor 1 µM, single trials
  activity at 1 µM: 6.24%
SIRT2 [2]; [8]
  %Activity, SIRT2: 6.7307%
SIRT2 [2]; inhibitor 2 µM, single trials
  activity at 2 µM: 5%
SIRT2 [2]; [9]
  %Activity, SIRT2: 6.0395%
SIRT2 [2]; [10]
  %Activity, SIRT2: -0.2382% and 0.3719%
SIRT2 [2]; inhibitor 50 µM, single trials
  activity at 50 µM: 1.19%
SIRT2 [2]; [11]
  %Activity, SIRT2: 0.8865%

## CCCCCCCCCCCCCC(=S)NCCCC[C@H](NC(=O)[C@@H](NC(=O)[C@@H](NC(=O)[C@H](CS)NC(=O)[C@@H](N)[C@@H](C)O)[C@@H](C)O)C(C)C)C(=O)N[C@H](C(=O)NCC(N)=O)[C@@H](C)CC [S2P04-tMyK] (H-TCTV[Lys(thiomyristoyl)]IG-NH2)
SIRT2 [1]
  IC50: 13 ± 4 nM
SIRT2 [1]; inhibitor 0.466362 nM
  activity at 0.000466362 µM: 95.3%
SIRT2 [1]; inhibitor 0.466362 nM, 0.000466362 µM
  %Activity, SIRT2: 104.732%
SIRT2 [1]; inhibitor 0.932724 nM
  activity at 0.000932724 µM: 97.9%
SIRT2 [1]; inhibitor 0.932724 nM, 0.000932724 µM
  %Activity, SIRT2: 100.382%
SIRT2 [1]; inhibitor 1.86545 nM, 0.00186545 µM
  %Activity, SIRT2: 87.5221% and 108.94%
SIRT2 [1]; inhibitor 3.7309 nM, 0.0037309 µM
  %Activity, SIRT2: 78.4292% and 108.338%
SIRT2 [1]; inhibitor 7.4618 nM
  activity at 0.0074618 µM: 77.8%
SIRT2 [1]; inhibitor 7.4618 nM, 0.0074618 µM
  %Activity, SIRT2: 66.6253%
SIRT2 [1]; inhibitor 14.9236 nM, 0.0149236 µM
  %Activity, SIRT2: 48.6419% and 27.9749%
SIRT2 [1]; inhibitor 59.6944 nM
  activity at 0.0596944 µM: 11%
SIRT2 [1]; inhibitor 59.6944 nM, 0.0596944 µM
  %Activity, SIRT2: 20.9299%
SIRT2 [1]; inhibitor 955.11 nM, 0.95511 µM
  %Activity, SIRT2: -1.089% and 1.089%

## CCCC(=S)NCCCC[C@H](NC(=O)[C@H](Cc1ccccc1)NC(=O)[C@@H](NC(=O)[C@@H](N)CS)[C@@H](C)O)C(=O)N[C@H](C(=O)N1CCC[C@H]1C(=O)N[C@H](C(N)=O)[C@@H](C)O)C(C)C [S2P07-tBuK] (H-CTF[X1]VPT-NH2)
SIRT2 [2]
  IC50: 101 ± 13 nM
SIRT2 [2]; [3]
  %Activity, SIRT2: 98.946% and 68.389%
SIRT2 [2]; [4]
  activity at 0.032 µM: 87.5%
SIRT2 [2]; [5]
  %Activity, SIRT2: 67.907%
SIRT2 [2]; [6]
  activity at 0.5 µM: 9.45%
SIRT2 [2]; [7]
  %Activity, SIRT2: 9.1144%
SIRT2 [2]; inhibitor 1 µM, single trials
  activity at 1 µM: 6.71%
SIRT2 [2]; [8]
  %Activity, SIRT2: 5.6905%
SIRT2 [2]; inhibitor 2 µM, single trials
  activity at 2 µM: 4.93%
SIRT2 [2]; [9]
  %Activity, SIRT2: 4.4406%
SIRT2 [2]; [10]
  %Activity, SIRT2: 0.3859% and 2.3975%
SIRT2 [2]; [11]
  %Activity, SIRT2: 0.4825% and -0.01509%
